Values quoted from earlier work as cited in article PMC5263201, “GABAA receptor occupancy by subtype selective GABAAα2,3 modulators: PET studies in humans” (Psychopharmacology, 2016).
Like-named read-outs stand apart in the source and are kept apart here.

How the values were obtained:
[1] = parameters: method as in AstraZeneca Single Ascending Dose studies; details: 6 subjects, ref AstraZeneca Single Ascending Dose studies, cited from earlier work
[2] = tested on: generalized anxiety disorder; parameters: method as in Chen et al. 2014, ClinTrials.gov; details: ref Chen et al. 2014, ClinTrials.gov; cited from earlier work

CCCNC(=O)c1nnc2c(-c3c(F)cccc3OC)cccc2c1N [AZD7325]
Number of subjects with at least one adverse event ([1]; AZD7325 0.2 mg): 2 (33) Number (%) of patients
anxiety ([1]; AZD7325 0.2 mg): 0 Number (%) of patients
dizziness ([1]; AZD7325 0.2 mg): 0 Number (%) of patients
euphoric mood ([1]; AZD7325 0.2 mg): 0 Number (%) of patients
hypoaesthesia ([1]; AZD7325 0.2 mg): 0 Number (%) of patients
paraesthesia ([1]; AZD7325 0.2 mg): 0 Number (%) of patients
somnolence ([1]; AZD7325 0.2 mg): 0 Number (%) of patients
Number of subjects with at least one adverse event ([1]; AZD7325 1mg): 2 (33) Number (%) of patients
anxiety ([1]; AZD7325 1mg): 0 Number (%) of patients
dizziness ([1]; AZD7325 1mg): 0 Number (%) of patients
euphoric mood ([1]; AZD7325 1mg): 0 Number (%) of patients
hypoaesthesia ([1]; AZD7325 1mg): 0 Number (%) of patients
paraesthesia ([1]; AZD7325 1mg): 0 Number (%) of patients
somnolence ([1]; AZD7325 1mg): 0 Number (%) of patients
Number of subjects with at least one adverse event ([1]; AZD7325 5mg): 4 (67) Number (%) of patients
anxiety ([1]; AZD7325 5mg): 0 Number (%) of patients
dizziness ([1]; AZD7325 5mg): 0 Number (%) of patients
euphoric mood ([1]; AZD7325 5mg): 0 Number (%) of patients
hypoaesthesia ([1]; AZD7325 5mg): 1 (17) Number (%) of patients
paraesthesia ([1]; AZD7325 5mg): 0 Number (%) of patients
somnolence ([1]; AZD7325 5mg): 1 (17) Number (%) of patients
Number of subjects with at least one adverse event ([1]; AZD7325 10 mg): 2 (33) Number (%) of patients
anxiety ([1]; AZD7325 10 mg): 0 Number (%) of patients
dizziness ([1]; AZD7325 10 mg): 2 (33) Number (%) of patients
euphoric mood ([1]; AZD7325 10 mg): 0 Number (%) of patients
hypoaesthesia ([1]; AZD7325 10 mg): 0 Number (%) of patients
paraesthesia ([1]; AZD7325 10 mg): 0 Number (%) of patients
somnolence ([1]; AZD7325 10 mg): 0 Number (%) of patients
Number of subjects with at least one adverse event ([1]; AZD7325 20 mg): 1 (17) Number (%) of patients
anxiety ([1]; AZD7325 20 mg): 0 Number (%) of patients
dizziness ([1]; AZD7325 20 mg): 0 Number (%) of patients
euphoric mood ([1]; AZD7325 20 mg): 1 (17) Number (%) of patients
hypoaesthesia ([1]; AZD7325 20 mg): 0 Number (%) of patients
paraesthesia ([1]; AZD7325 20 mg): 0 Number (%) of patients
somnolence ([1]; AZD7325 20 mg): 0 Number (%) of patients
Number of subjects with at least one adverse event ([1]; AZD7325 30 mg): 3 (50) Number (%) of patients
anxiety ([1]; AZD7325 30 mg): 0 Number (%) of patients
dizziness ([1]; AZD7325 30 mg): 1 (17) Number (%) of patients
euphoric mood ([1]; AZD7325 30 mg): 1 (17) Number (%) of patients
hypoaesthesia ([1]; AZD7325 30 mg): 0 Number (%) of patients
paraesthesia ([1]; AZD7325 30 mg): 0 Number (%) of patients
somnolence ([1]; AZD7325 30 mg): 1 (17) Number (%) of patients
Number of subjects with at least one adverse event ([1]; AZD7325 50 mg): 1 (50) Number (%) of patients
anxiety ([1]; AZD7325 50 mg): 0 Number (%) of patients
dizziness ([1]; AZD7325 50 mg): 0 Number (%) of patients
euphoric mood ([1]; AZD7325 50 mg): 0 Number (%) of patients
hypoaesthesia ([1]; AZD7325 50 mg): 0 Number (%) of patients
paraesthesia ([1]; AZD7325 50 mg): 0 Number (%) of patients
somnolence ([1]; AZD7325 50 mg): 0 Number (%) of patients
Number of subjects with at least one adverse event ([1]; AZD7325 75 mg): 4 (67) Number (%) of patients
anxiety ([1]; AZD7325 75 mg): 0 Number (%) of patients
dizziness ([1]; AZD7325 75 mg): 0 Number (%) of patients
euphoric mood ([1]; AZD7325 75 mg): 3 (50) Number (%) of patients
hypoaesthesia ([1]; AZD7325 75 mg): 0 Number (%) of patients
paraesthesia ([1]; AZD7325 75 mg): 1 (17) Number (%) of patients
somnolence ([1]; AZD7325 75 mg): 0 Number (%) of patients
Number of subjects with at least one adverse event ([1]; AZD7325 100 mg): 4 (67) Number (%) of patients
anxiety ([1]; AZD7325 100 mg): 1 (17) Number (%) of patients
dizziness ([1]; AZD7325 100 mg): 2 (33) Number (%) of patients
euphoric mood ([1]; AZD7325 100 mg): 1 (17) Number (%) of patients
hypoaesthesia ([1]; AZD7325 100 mg): 0 Number (%) of patients
paraesthesia ([1]; AZD7325 100 mg): 0 Number (%) of patients
somnolence ([1]; AZD7325 100 mg): 1 (17) Number (%) of patients
anxiolytic effect in patients with generalized anxiety disorder [2]: only a weak anxiolytic effect
